Legend:
[1] = system: Pseudomonas aeruginosa (ATCC 15442); assay: Biocidal activity against simulated biofilm system (alginate beads with entrapped bacteria); type: cell-based; details: pH 8
From the text: A biofilm simulation system, alginate beads, developed by the Biofilm Bozeman Institute Montana (Grobe, K. J, Zahller, J and Stewart P. S., 2002 in “Role of dose concentration in biocide efficacy against Pseudomonas aeruginosa Biofilms”, J. Industrial Microbiology & Biotechnology, vol. 29, pp 10-15), was used in order to evaluate the efficacy of the biocide solution against biofilm.
The biofilm simulation was created by entrapping bacteria in alginate gel beads. A plate of R2A agar was streaked with Pseudomonas aeruginosa (ATCC 15442) and incubated at 35° C. overnight. Buffer phosphate at pH 7.2 was used to scrap off the bacteria from the agar plate and to create a suspension. The bacterial suspension was mixed with an equal volume of an aqueous 4% sodium alginate solution, to make a final 2% alginate solution. The alginate and bacterial slurry were placed in a 50 ml syringe attached to a gauge needle, connected to a compressed air tank, allowing the syringe to be pressurized. At 20 psig pressure a stream of small drops was forced out and dropped into a stirred solution of 50 mM CaCl2. The Ca^+2 cross linked the alginate, and semi solid beads with entrapped bacterial cells were formed. The beads were allowed to stir in the CaCl2 solution for about 20 minutes, and then rinsed in a dilute 5 mM CaCl2 solution. Several flasks containing 100 beads each were incubated overnight at 35° C. on a rotating shaker in a buffer solution (at pH 8) with 5 mM addition of CaCl2 to maintain the beads structure. The resulting beads diameter was about 2 mm.
At the beginning of the experiment, the supernatant of the beads buffer suspension containing 5 mM CaCl2 was decanted and replaced by the 100 ml biocide solution with the required concentration (at pH 8). After different interval contact times, 10 beads were removed and placed in a 5 g/l sodium thiosulfate solution containing 50 mM sodium citrate. The sodium citrate was used to dissolve the alginate gel and release the bacteria into the solution. The neutralizer-citrate solution was placed in the refrigerator for 2 hours, than diluted and placed on R2A agar plates using pour plate technique. The plates were incubated at 35° C. for 24-48 hours and counted. The efficacy and toxicity of the neutralizer were checked as well as a control experiment without biocide addition. Four concentrations of active chlorine (0.5, 1, 2.5 and 5 ppm) were tested at four different contact times (5, 15, 30, and 60 min). Table 1-2 describe the surviving colony forming units (CFU) of the bacteria after different biocides treatment at different contact times.

[2] = system: Inoculum of bacteria (activated sludge taken from domestic waste water treatment plant in Haifa); assay: Biocidal efficacy under different TOC loading; type: cell-based; details: 30 min, pH 7
Protocol: Inoculum of bacteria (activated sludge taken from domestic waste water treatment plant in Haifa), R2A agar for general counting, and Tryptone were employed. The biocidal efficacy of the antifouling composition at different organic loads of 0, 10, 30 and 50 ppm TOC, was examined under different biocidal concentrations (5 and 10 ppm) at pH 7.
1) 1 ml of inoculum with the appropriate biocide concentration (5, 10 ppm) was added to tryptone solutions, 100 ml each, with different concentrations of TOC (0, 10, 30 and 50 ppm). […] The result stands for the bacteria count at zero time. 3) After 30 min. of shaking (100 rpm), 1 ml of each sample was transferred to a tube filled with 9 ml of the neutralization solution […].
An aliquot of 1 ml was taken from this solution and added to another tube containing 9 ml of buffer solution. The solution was mixed under vortex. This operation was repeated for 4 more times.
4) 1 ml from the two lowest dilutions was inoculated on a R2A agar (by the pour plate method). 5) After the plates were incubated at 25° C. for 5-7 days, the bacteria count was recorded.

SMILES: OCl [NaOCl, sodium hypochlorite]
- survival of bacteria (CFU) ([1]; biocide 0.5 ppm as Cl2, contact time 0 min): 1.20E+07 CFU
- survival of bacteria (CFU) ([1]; biocide 0.5 ppm as Cl2, contact time 5 min): 6.73E+06 CFU
- survival of bacteria (CFU) ([1]; biocide 0.5 ppm as Cl2, contact time 15 min): 6.48E+06 CFU
- survival of bacteria (CFU) ([1]; biocide 0.5 ppm as Cl2, contact time 30 min): 6.53E+06 CFU
- survival of bacteria (CFU) ([1]; biocide 0.5 ppm as Cl2, contact time 60 min): 4.08E+06 CFU
- survival of bacteria (CFU) ([1]; biocide 1 ppm as Cl2, contact time 0 min): 1.20E+07 CFU
- survival of bacteria (CFU) ([1]; biocide 1 ppm as Cl2, contact time 5 min): 7.25E+06 CFU
- survival of bacteria (CFU) ([1]; biocide 1 ppm as Cl2, contact time 15 min): 4.18E+06 CFU
- survival of bacteria (CFU) ([1]; biocide 1 ppm as Cl2, contact time 30 min): 4.28E+06 CFU
- survival of bacteria (CFU) ([1]; biocide 1 ppm as Cl2, contact time 60 min): 1.81E+06 CFU
- survival of bacteria (CFU) ([1]; biocide 2.5 ppm as Cl2, contact time 0 min): 1.20E+07 CFU
- survival of bacteria (CFU) ([1]; biocide 2.5 ppm as Cl2, contact time 5 min): 6.40E+06 CFU
- survival of bacteria (CFU) ([1]; biocide 2.5 ppm as Cl2, contact time 15 min): 3.10E+06 CFU
- survival of bacteria (CFU) ([1]; biocide 2.5 ppm as Cl2, contact time 30 min): 8.28E+05 CFU
- survival of bacteria (CFU) ([1]; biocide 2.5 ppm as Cl2, contact time 60 min): 9.38E+04 CFU
- survival of bacteria (CFU) ([1]; biocide 5 ppm as Cl2, contact time 0 min): 1.20E+07 CFU
- survival of bacteria (CFU) ([1]; biocide 5 ppm as Cl2, contact time 5 min): 4.55E+06 CFU
- survival of bacteria (CFU) ([1]; biocide 5 ppm as Cl2, contact time 15 min): 7.03E+05 CFU
- survival of bacteria (CFU) ([1]; biocide 5 ppm as Cl2, contact time 30 min): 2.70E+03 CFU
- survival of bacteria (CFU) ([1]; biocide 5 ppm as Cl2, contact time 60 min): 1.00 CFU
- % kill ([2]; biocide 5 ppm, TOC 0 ppm): 96.9%
- % kill ([2]; biocide 5 ppm, TOC 10 ppm): 86.0%
- % kill ([2]; biocide 5 ppm, TOC 30 ppm): 30.6%
- % kill ([2]; biocide 5 ppm, TOC 50 ppm): 30.6%
- % kill ([2]; biocide 10 ppm, TOC 0 ppm): 99.9%
- % kill ([2]; biocide 10 ppm, TOC 10 ppm): 98.8%
- % kill ([2]; biocide 10 ppm, TOC 30 ppm): 95.4%
- % kill ([2]; biocide 10 ppm, TOC 50 ppm): 88.3%

From patent US20150208661A1, “METHOD FOR PREPARING BROMINE BASED BIOCIDAL AQUEOUS COMPOSITIONS” (BROMINE COMPOUNDS LTD., priority 2012, published 2015)
